This is an account of results in publication PMC2996484 (Journal of neurochemistry, 2010).

Test [1] deals with PKC phosphorylation of the D1DAR. As to the kind of experiment: In situ phosphorylation assay, HEK293T cells expressing the D1DAR. Type of test: cell-based, rat. The conditions noted are these: cells treated 30 min with 1 μM phorbol ester, Fig. 1A.
A further test deals with PKC-null D1DAR (Rattus norvegicus, UniProt P18901, S259A/S397A/S398A/S417A/S421A). Put plainly: cAMP accumulation assay, HEK293T cells expressing PKC-null D1DAR. Format: cell-based. The conditions noted are these: 1 μM PMA 30 min or 3 μM Gö6983 1 hr.
Chain of PKC-null D1DAR (P18901 whole entry S259A/S397A/S398A/S417A/S421A): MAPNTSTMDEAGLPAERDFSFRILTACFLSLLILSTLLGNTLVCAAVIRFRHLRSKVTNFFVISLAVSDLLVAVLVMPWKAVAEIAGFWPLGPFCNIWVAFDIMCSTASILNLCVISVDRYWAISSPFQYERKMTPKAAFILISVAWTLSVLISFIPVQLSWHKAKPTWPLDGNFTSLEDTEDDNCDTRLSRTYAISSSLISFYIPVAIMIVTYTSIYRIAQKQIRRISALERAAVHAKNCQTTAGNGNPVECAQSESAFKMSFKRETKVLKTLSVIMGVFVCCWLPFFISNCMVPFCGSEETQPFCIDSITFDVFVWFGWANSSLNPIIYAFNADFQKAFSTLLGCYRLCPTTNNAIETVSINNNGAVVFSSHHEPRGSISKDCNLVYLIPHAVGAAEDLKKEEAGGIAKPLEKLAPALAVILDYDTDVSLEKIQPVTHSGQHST
Another test deals with WT D1DAR (Rattus norvegicus, UniProt P18901). Put plainly: cAMP accumulation assay, HEK293T cells expressing WT D1DAR. Type of test: cell-based. The note with it: 1 μM PMA 30 min or 3 μM Gö6983 1 hr.
Chain of WT D1DAR (P18901 whole entry): as the sequence (P18901 whole entry S259A/S397A/S398A/S417A/S421A) above, with A259S, A397S, A398S, A417S, A421S counted along it

Turning to `CCCCCCCCCC(=O)O[C@@H]1[C@@H](C)[C@@]2(O)[C@@H](C=C(CO)C[C@@]3(O)C(=O)C(C)=C[C@@H]23)[C@@H]2C(C)(C)[C@]12OC(=O)CCCCCCCCC` [4αPDD, 4α-phorbol-12,13-didecanoate], the “D1DAR phosphorylation above basal” value in test [1] is “inactive”.
Take `CCCC(=O)O[C@@H]1[C@@H](C)[C@@]2(O)[C@@H](C=C(CO)C[C@]3(O)C(=O)C(C)=C[C@@H]23)[C@@H]2C(C)(C)[C@]12OC(=O)CCC` [PDBu, phorbol 12,13 dibutyrate]: the “D1DAR phosphorylation above basal” value in test [1] is “robust increase in phosphorylation”.
Take `CCCCCCCCCCCCCC(=O)O[C@@H]1[C@@H](C)[C@@]2(O)[C@@H](C=C(CO)C[C@]3(O)C(=O)C(C)=C[C@@H]23)[C@@H]2C(C)(C)[C@]12OC(C)=O` [PMA, phorbol 12-myristate 13-acetate]: the “effect of pretreatment on maximal DA-stimulated cAMP accumulation” value at PKC-null D1DAR is recorded as “potentiation of maximal cAMP accumulation”; on WT D1DAR, “potentiation of the maximal amount of D1DAR-stimulated cAMP accumulation”. For the same molecule, the “D1DAR phosphorylation above basal” value in test [1] is given as “robust increase in phosphorylation”.
For the molecule `COc1ccc2c(c1)c(C1=C(c3c[nH]c4ccccc34)C(=O)NC1=O)cn2CCCN(C)C` [Gö6983], the “effect of pretreatment on maximal DA-stimulated cAMP accumulation” value on PKC-null D1DAR is “no longer displays an enhancement of cAMP accumulation”; at WT D1DAR it was “potentiation of the maximal amount of D1DAR-stimulated cAMP accumulation”.
